The values below come from EP2864333B1, “ETODOLAC DERIVATIVES AS HCV NS5B POLYMERASE INHIBITORS” (priority 2012, dated 2014).

For experiment [1], the target named is T1, HCV NS5B RdRp (NS5BCdelta21) (Hepatitis C virus genotype 1b, UniProt P26663).
T1 construct: 500 ng of NS5BCdelta21; made in house; host or cells: Escherichia coli DH5alpha
The experiment in a line: HCV NS5B RNA-dependent RNA polymerase (RdRp) assay, poly rA/U12 primer-dependent elongation. Format: biochemical. The settings on record: for inhibition at 100 µM: read-out: Anti-NS5B Activity (% Inhibition, 100 µM); for inhibition at 200 µM: read-out: Anti-NS5B Activity (% Inhibition, 200 µM). Here is the method: The RdRp activity of NS5B was evaluated by the standard primer-dependent elongation reactions employing poly rA/U12 template-primers (TP). Reaction mixtures containing 20 mM Tris-HCl (pH 7.0), 100 mM NaCl, 100 mM Na-glutamate, 0.5 mM DTT, 0.01% BSA, 0.01% Tween-20, 5% glycerol, 20 U/ml of RNasin, 0.5 microM of poly rA/U12, 25 microM UTP, 2-5 microCi [alpha-32P]UTP, 500 ng of NS5BCdelta21 and 0.5 mM MnCl2 with or without inhibitors in a total volume of 25 microliters were incubated for 1 h at 30°C. Reactions were quenched by the addition of ice cold 5% (v/v) trichloroacetic acid (TCA) containing 0.5 mM pyrophosphate (PPi), the denatured polymeric RNA products were transferred to GF-B filters and the amount of radioactive UMP incorporated into RNA products was quantified on a liquid scintillation counter (Packard). The concentrations of the compounds inhibiting 50% of NS5B RdRp activity (IC50) were calculated from the inhibition curves as a function of inhibitor concentration. Nsp12 activity was similarly evaluated except that incubations were carried out at 25°C for optimal enzymatic activity.
The ability of the compounds to inhibit HCV NS5B RdRp activity was investigated in vitro by polyrA-U12 extension assay as described in experimental section by Kaushik-Basu N, et al.. The compounds SGK 224-230, 313 and SGK 238- 244, 315 were reconstituted in DMSO as 50 mM stocks, and serially diluted in DMSO to obtain working stocks.
Preliminary screening was carried out at 100 µM to identify a wider range of compounds. […] NS5B RdRp activity in the absence of the inhibitor was taken as 100 percent after subtraction of residual background activity. The concentration of DMSO in all reactions was kept constant at 5%. […] Curves were fitted to data points using nonlinear regression analysis and IC50 values were interpolated from the resulting curves using GraphPad Prism 3.03 software.

Experiment [2] concerns the target T1, HCV NS5B RdRp (NS5BCdelta21). The experiment is described as above. The settings on record: read-out: Anti-HCV Activity (%Inhibition, 100 µM). Format: biochemical.
Where [3] appears, read: dose-response curves, 8-10 concentrations, duplicate, two independent experiments, read-out: IC50.

Broadly, the IC50 is the concentration at which inhibition is half-maximal. As usually defined, the inhibition is the change of the read-out against control, counted positive when it falls.

Like-named read-outs stand apart in the source and are kept apart here.

T1 sequence (P26663 2420-2989): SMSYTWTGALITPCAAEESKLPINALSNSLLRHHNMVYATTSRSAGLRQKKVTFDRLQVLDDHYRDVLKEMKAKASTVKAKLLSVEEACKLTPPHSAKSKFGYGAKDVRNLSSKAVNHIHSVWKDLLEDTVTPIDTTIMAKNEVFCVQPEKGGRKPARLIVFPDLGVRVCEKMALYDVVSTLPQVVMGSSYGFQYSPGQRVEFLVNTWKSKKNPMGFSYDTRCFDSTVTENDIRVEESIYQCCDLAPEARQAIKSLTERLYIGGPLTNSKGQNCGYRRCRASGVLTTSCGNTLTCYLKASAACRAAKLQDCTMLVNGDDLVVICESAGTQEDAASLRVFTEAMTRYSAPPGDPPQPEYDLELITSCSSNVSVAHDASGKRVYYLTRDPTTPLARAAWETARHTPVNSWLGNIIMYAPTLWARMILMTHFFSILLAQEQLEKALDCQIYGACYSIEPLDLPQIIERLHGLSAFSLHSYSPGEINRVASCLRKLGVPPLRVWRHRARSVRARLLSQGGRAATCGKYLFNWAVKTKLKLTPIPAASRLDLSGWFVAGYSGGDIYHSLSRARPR

With `COc1cc(O)c2c(c1)oc(=O)c1c3cc(O)c(O)cc3oc21` [Wedelolacton, reference compound], in experiment [1] (setting [3]), the IC50 was found to be 36 µM.
Regarding `C=CCNC(=S)NNC(=O)CC1(CC)OCCc2c1[nH]c1c(CC)cccc21` (stereo not drawn) [SGK 229, 1-[2-(1,8-Diethyl-1,3,4,9-tetrahydropyrano[3,4-b]indole-1-yl)acetyl]-4-allyl thiosemicarbazide], the IC50 in experiment [1] (setting [3]) came to 16.8 ± 1.2 µM. In experiment [1], the inhibition at 100 µM is 78.6 ± 2.1% and the inhibition at 200 µM is 81.6 ± 0.8%.
Turning to `CCc1cccc2c3c([nH]c12)C(CC)(CC(=O)OC)OCC3` (racemic) [SGK 196, methyl (1,8-diethyl-1,3,4,9-tetrahydropirano[3,4-b]indole-1-yl) acetate], in experiment [1], the inhibition at 100 µM turned out to be 6.4 ± 0.9% and the inhibition at 200 µM came out at 13.3 ± 1.2%.
With `CCc1cccc2c3c([nH]c12)C(CC)(Cc1n[nH]c(=S)n1C)OCC3` (stereo not drawn) [SGK 238, 5-[(1,8-diethyl-1,3,4,9-tetrahydropyrano[3,4-b]indol-1-yl)methyl]-4-methyl-2,4-dihydro-3H-1,2,4-triazole-3-thione], in experiment [1], the midpoint of inhibition, the IC50, lay at 14.8 µM; the inhibition at 100 µM turned out to be 78.9 ± 0.7%; the inhibition at 200 µM came to 86 ± 0.6%.
The corresponding values for `CCc1cccc2c3c([nH]c12)C(CC)(CC(=O)NN=Cc1cccc(F)c1)OCC3` (stereo not drawn) [SGK 202, 2-(1,8-Diethyl-1,3,4,9-tetrahydropyrano[3,4-b]indole-1-yl) acetic acid [(3-fluorophenyl)methylene] hydrazide] are 35.9 ± 1.4 µM, 61.6 ± 0.4% and 66.4 ± 5.8%.
Regarding `CCc1cccc2c3c([nH]c12)C(CC)(CC(=O)NNC(=S)NC)OCC3` (stereo not drawn) [SGK 224, 1-[2-(1,8-diethyl-1,3,4,9-tetrahydropyrano[3,4-b]indol-1-yl)acetyl]-4-methyl thiosemicarbazide], the IC50 in experiment [1] (setting [3]) stood at 18.7 µM. Also, in experiment [1], the inhibition at 100 µM was found to be 76.2 ± 0.5% and the inhibition at 200 µM is 77.5 ± 1.3%.
As to `CCc1cccc2c3c([nH]c12)C(CC)(CC(=O)NN)OCC3` (stereo not drawn) [SGK 197, 2-(1,8-diethyl-1,3,4,9-tetrahydropyrano[3,4-b]indole-1-yl)acetohydrazide], in experiment [1], the inhibition at 100 µM was determined as 11.4 ± 0.2% and the inhibition at 200 µM is 19 ± 4.4%.
As to `CCc1cccc2c3c([nH]c12)C(CC)(CC(=O)O)OCC3` (racemic) [Etodolac, (R,S)-2-[1,8-diethyl-1,3,4-tetrahydrapyrano[3,4-b]indole-1-yl]acetic acid], in experiment [2], the inhibition at 100 µM stood at 7.4%.
